# In patent US20090124607A1, “Novel Bicyclic Sulfonamides for Use as Glucocorticoid Receptor Modulators in the Treatment of Inflammatory Diseases” (priority 2005, published 2009):
# Biological target: T1, recombinant human GR (Homo sapiens, UniProt P04150)
# T1 construct: purchased Panvera/Invitrogen P2812 (kit P2893)
# T1 sequence (P04150 1-777): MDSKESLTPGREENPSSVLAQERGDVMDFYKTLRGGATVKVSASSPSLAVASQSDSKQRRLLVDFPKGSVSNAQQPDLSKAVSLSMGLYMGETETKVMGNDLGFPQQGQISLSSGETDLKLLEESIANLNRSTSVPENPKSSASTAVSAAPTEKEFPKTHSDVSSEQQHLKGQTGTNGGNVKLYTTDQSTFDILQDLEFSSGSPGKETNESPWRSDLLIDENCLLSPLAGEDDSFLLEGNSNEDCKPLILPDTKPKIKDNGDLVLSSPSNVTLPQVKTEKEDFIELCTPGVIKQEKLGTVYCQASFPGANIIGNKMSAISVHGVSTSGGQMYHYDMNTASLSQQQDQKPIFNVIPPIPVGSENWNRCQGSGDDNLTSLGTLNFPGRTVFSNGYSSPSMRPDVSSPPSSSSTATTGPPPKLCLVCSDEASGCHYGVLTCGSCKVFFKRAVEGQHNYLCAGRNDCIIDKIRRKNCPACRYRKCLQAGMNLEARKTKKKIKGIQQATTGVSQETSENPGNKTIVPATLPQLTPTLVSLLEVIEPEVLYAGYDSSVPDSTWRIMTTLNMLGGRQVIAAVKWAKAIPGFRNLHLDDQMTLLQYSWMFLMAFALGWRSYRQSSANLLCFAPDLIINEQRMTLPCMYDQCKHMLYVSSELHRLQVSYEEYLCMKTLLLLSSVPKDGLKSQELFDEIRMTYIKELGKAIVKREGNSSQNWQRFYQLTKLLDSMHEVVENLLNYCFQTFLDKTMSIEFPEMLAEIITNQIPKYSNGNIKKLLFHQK
# Assay: Human Glucocorticoid Receptor (GR) Assay, fluorescence polarization (GRhuFL_FP_v2, GR-binders)
# Type: binding
# Experimental: Human Glucocorticoid Receptor (GR) Assay
# The assay is based on a commercial kit from Panvera/Invitrogen (Part number P2893). The assay technology is fluorescence polarization. […] The GR and Stabilizing Peptide reagents are stored at −70° C. while the GS Red is stored at −20° C. Also included in the kit are 1M DTT (Panvera, Part number P2325, stored at −20° C.) and GR Screening buffer 10× (Panvera, Part number P2814, stored at −70° C. initially but once thawed stored at room temperature). Avoid repeated freeze/thaws for all reagents. The GR Screening buffer 10× comprises 100 mM potassium phosphate, 200 mM sodium molybdate, 1 mM EDTA and 20% DMSO.
# 0% control was 100% DMSO and 100% control was 10 μM Dexamethasone. Background solution (8 μL; assay buffer 10×, Stabilizing Peptide, DTT and ice cold MQ water) was added to the background wells. GS Red solution (7 μL; assay buffer 10×, Stabilizing Peptide, DTT, GS Red and ice cold water) was added to all wells except background wells. GR solution (7 μL; assay buffer 10×, Stabilizing Peptide, DTT, GR and ice cold water) was added to all wells. The plate was sealed and incubated in a dark at room temperature for 2 hours.
row,IC50 [nM],SMILES
1,80,"Cc1nn(C(C)(C)C)c(C)c1S(=O)(=O)N[C@@H](C)COc1cccc2c1cnn2-c1cccnc1 [Example 44, 1-tert-Butyl-3,5-dimethyl-N-{(1S)-1-methyl-2-[(1-pyridin-3-yl-1H-indazol-4-yl)oxy]ethyl}-1H-pyrazole-4-sulfonamide]"
2,7.6,"Cc1cc(C)c(S(=O)(=O)NC(C)CSc2cccc3c2cnn3-c2ccc(F)cc2)c(C)c1 (stereo not drawn) [Example 36, N-[2-[1-(4-Fluorophenyl)indazol-4-yl]sulfanyl-1-methylethyl]-2,4,6-trimethyl-benzenesulfonamide]"
3,6.9,"COc1cccc(-n2ncc3c(NC[C@H](C)NS(=O)(=O)c4c(C)cc(C)cc4C)cccc32)c1 [Example 8, N-((1S)-2-{[1-(3-Methoxyphenyl)-1H-indazol-4-yl]amino}-1-methylethyl)-2,4,6-trimethylbenzenesulfonamide]"
4,7.3,"Cc1cc(C)c(S(=O)(=O)N[C@@H](C)CNc2c(C)ccc3c2cnn3-c2ccc(F)cc2)c(C)c1 [Example 23, N-((1S)-2-{[1-(4-Fluorophenyl)-5-methyl-1H-indazol-4-yl]amino}-1-methylethyl)-2,4,6-trimethylbenzenesulfonamide]"
5,23,"COc1ncc(-n2ncc3c(NC[C@H](C)NS(=O)(=O)c4c(C)nn(C5CCCC5)c4C)cccc32)cn1 [Example 28, 1-Cyclopentyl-N-((1S)-2-{[1-(2-methoxypyrimidin-5-yl)-1H-indazol-4-yl]amino}-1-methylethyl)-3,5-dimethyl-1H-pyrazole-4-sulfonamide]"
6,4.3,"Cc1cc(C)c(S(=O)(=O)N[C@@H](C)CNc2cccc3c2cnn3-c2ccncc2)c(C)c1 [Example 14, 2,4,6-Trimethyl-N-{(1S)-1-methyl-2-[(1-pyridin-4-yl-1H-indazol-4-yl)amino]ethyl}benzenesulfonamide]"
7,3.9,"Cc1ccc(-n2ncc3c(NC[C@H](C)NS(=O)(=O)c4c(C)cc(C)cc4C)cccc32)cc1 [Example 12, 2,4,6-Trimethyl-N-((1S)-1-methyl-2-{[1-(4-methylphenyl)-1H-indazol-4-yl]amino}ethyl)benzenesulfonamide]"
8,790,"Cc1cc(C)c(S(=O)(=O)NC(C)CS(=O)(=O)c2cccc3c2cnn3-c2ccc(F)cc2)c(C)c1 (stereo not drawn) [Example 37, N-[2-[1-(4-Fluorophenyl)indazol-4-yl]sulfonyl-1-methyl-ethyl]-2,4,6-trimethyl-benzenesulfonamide]"
9,4.7,"Cc1nn(C2CCCC2)c(C)c1S(=O)(=O)N[C@@H](C)CNc1cccc2c1cnn2-c1ccc(C#N)cc1 [Example 30, N-((1S)-2-{[1-(4-Cyanophenyl)-1H-indazol-4-yl]amino}-1-methylethyl)-1-cyclopentyl-3,5-dimethyl-1H-pyrazole-4-sulfonamide]"
10,44,"COc1cncc(-n2ncc3c(NC[C@H](C)NS(=O)(=O)c4c(C)nn(C5CCCC5)c4C)cccc32)c1 [Example 31, 1-Cyclopentyl-N-((1S)-2-{[1-(5-methoxypyridin-3-yl)-1H-indazol-4-yl]amino}-1-methylethyl)-3,5-dimethyl-1H-pyrazole-4-sulfonamide]"
11,6.6,"COc1ccc(-n2ncc3c(NC[C@H](C)NS(=O)(=O)c4c(C)cc(C)cc4C)cccc32)cn1 [Example 11, N-((1S)-2-{[1-(6-Methoxypyridin-3-yl)-1H-indazol-4-yl]amino}-1-methylethyl)-2,4,6-trimethylbenzenesulfonamide]"
12,2.7,"COc1ccc(-n2ncc3c(NC[C@H](C)NS(=O)(=O)c4c(C)cc(C)cc4C)cccc32)cc1F [Example 21, N-((1S)-2-{[1-(3-Fluoro-4-methoxy-phenyl)-1H-indazol-4-yl]amino}-1-methylethyl)-2,4,6-trimethylbenzenesulfonamide]"
13,4,"Cc1cc(C)c(S(=O)(=O)N[C@@H](C)CNc2cccc3c2cnn3-c2ccc(F)c(C)c2)c(C)c1 [Example 17, N-((1S)-2-{[1-(4-Fluoro-3-methylphenyl)-1H-indazol-4-yl]amino}-1-methylethyl)-2,4,6-trimethylbenzenesulfonamide]"
14,4.6,"Cc1cc(C)c(S(=O)(=O)N[C@@H](C)CCc2cccc3c2cnn3-c2ccc(F)cc2)c(C)c1 [Example 39, N-{(1S)-3-[1-(4-Fluorophenyl)-1H-indazol-4-yl]-1-methylpropyl}-2,4,6-trimethylbenzenesulfonamide]"
15,5.7,"Cc1nn(C2CCCC2)c(C)c1S(=O)(=O)N[C@@H](C)CNc1cccc2c1cnn2-c1cncnc1 [Example 29, 1-Cyclopentyl-3,5-dimethyl-N-{(1S)-1-methyl-2-[(1-pyrimidin-5-yl-1H-indazol-4-yl)amino]ethyl}-1H-pyrazole-4-sulfonamide]"
16,45,"Cc1cc(C)c(S(=O)(=O)NC(C)CCc2cccc3c2cnn3-c2ccc(F)cc2)c(C)c1 (stereo not drawn) [Example 38, N-{3-[1-(4-Fluorophenyl)-1H-indazol-4-yl]-1-methylpropyl}-2,4,6-trimethylbenzenesulfonamide]"
17,8,"Cc1cc(C)c(S(=O)(=O)N[C@H](CNc2cccc3c2cnn3-c2ccc(F)cc2)C(C)C)c(C)c1 [Example 35, N-[(1S)-1-({[1-(4-Fluorophenyl)-1H-indazol-4-yl]amino}methyl)-2-methylpropyl]-2,4,6-trimethylbenzenesulfonamide]"
18,260,"Cc1cc(C)c(S(=O)(=O)N[C@@H](C)CNc2cccc3c2cnn3-c2cccc(C(F)(F)F)c2)c(C)c1 [Example 19, 2,4,6-Trimethyl-N-[(1S)-1-methyl-2-({1-[3-(trifluoromethyl)phenyl]-1H-indazol-4-yl}amino)ethyl]benzene sulfonamide]"
19,3.8,Cc1nn(C2CCCC2)c(C)c1S(=O)(=O)N[C@@H](C)CNc1cccc2c1cnn2-c1ccc(F)cc1 [Example 25]
20,36,"Cc1nn([C@H]2CCOC2)c(C)c1S(=O)(=O)N[C@@H](C)COc1cccc2c1cnn2-c1ccc(F)cc1 [Example 47, N-((1S)-2-{[1-(4-Fluorophenyl)-1H-indazol-4-yl]oxy}-1-methylethyl)-3,5-dimethyl-1-[(3S)-tetrahydrofuran-3-yl]-1H-pyrazole-4-sulfonamide]"
21,10,"Cc1cc(C)c(S(=O)(=O)N[C@@H](C)CCc2cccc3c(-c4ccc(F)cc4)n[nH]c23)c(C)c1 [Example 53, N-{(1S)-3-[3-(4-Fluorophenyl)-1H-indazol-7-yl]-1-methylpropyl}-2,4,6-trimethylbenzenesulfonamide]"
22,18,"CCC(CC)n1nc(C)c(S(=O)(=O)N[C@@H](C)COc2cccc3c2cnn3-c2ccc(F)cc2)c1C [Example 46, 1-(1-Ethylpropyl)-N-((1S)-2-{[1-(4-fluorophenyl)-1H-indazol-4-yl]oxy}-1-methylethyl)-3,5-dimethyl-1H-pyrazole-4-sulfonamide]"
23,4,"Cc1cc(C)c(S(=O)(=O)N[C@@H](C)CNc2cccc3c2cnn3-c2cccc(F)c2)c(C)c1 [Example 13, N-((1S)-2-{[1-(3-Fluorophenyl)-1H-indazol-4-yl]amino}-1-methylethyl)-2,4,6-trimethylbenzenesulfonamide]"
24,3,"Cc1nn(C2CCCC2)c(C)c1S(=O)(=O)N[C@@H](C)CNc1cccc2c1cnn2-c1ccc(F)nc1 [Example 26, 1-Cyclopentyl-N-((1S)-2-{[1-(6-fluoropyridin-3-yl)-1H-indazol-4-yl]amino}-1-methylethyl)-3,5-dimethyl-1H-pyrazole-4-sulfonamide]"
25,272,"Cc1cc(C)c(S(=O)(=O)N[C@@H](C)CNc2cccc3c2c(C)nn3-c2ccc(F)cc2)c(C)c1 [Example 52, N-((1S)-2-{[1-(4-Fluoro-phenyl)-3-methyl-1H-indazol-4-yl]amino}-1-methylethyl)-2,4,6-trimethylbenzenesulfonamide]"
26,4.2,"Cc1cc(C)c(S(=O)(=O)N[C@@H](C)CNc2c(F)ccc3c2cnn3-c2ccc(F)cc2)c(C)c1 [Example 32, N-((1S)-2-{[5-Fluoro-1-(4-fluorophenyl)-1H-indazol-4-yl]amino}-1-methylethyl)-2,4,6-trimethylbenzenesulfonamide]"
27,3.5,"Cc1cc(C)c(S(=O)(=O)N[C@@H](C)CNc2cccc3c2cnn3-c2ccccc2)c(C)c1 [Example 7, 2,4,6-Trimethyl-N-{(1S)-1-methyl-2-[(1-phenyl-1H-indazol-4-yl)amino]ethyl}benzenesulfonamide]"
